What was measured:
cancer cell lines = assay: Cancer cell proliferation activity of representative nucleosides, CellTiterGlo 72 h (Example 7, Tables 8 and 9); assay type: cell-based; details: 72 h
Procedure, shortened: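 Cancer cell lines seeded and incubated at 37° C overnight, then exposed to nucleosides (final DMSO 0.1%) for 72 h at 37° C with 5% or 10% CO2. Viability read by CellTiterGlo luminescence and normalized to 0.1% DMSO (100%) and 10 μM staurosporine (0%) controls.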

human LINE-1 = assay: Human LINE-1 (L1) retrotransposition dual-luciferase reporter assay in HeLa cells; assay type: cell-based; details: Homo sapiens, HeLa, 72 h, read-out: Human LINE-1 IC50 (Human L1 activity inhibition)
Procedure, shortened: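 HeLa cells transfected with dual-luciferase L1 plasmid pYX017 (100 ng/well), dosed immediately after with serially diluted compounds (0.2% DMSO final) in triplicate and incubated 72 h at 37 °C. Relative L1 activity = Firefly/Renilla ×10,000; IC50 from logistic non-linear regression.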

CC[C@]1(CO)O[C@@H](n2ccc(N)nc2=O)C[C@@H]1O [compound 21, 4-amino-1-((2R,4S,5R)-5-ethyl-4-hydroxy-5-(hydroxymethyl)tetrahydrofuran-2-yl)pyrimidin-2(1H)-one]
IC50 (cancer cell lines; 72 h, 5637, bladder): > 50 µM
IC50 (cancer cell lines; CLS439, bladder): > 50 µM
IC50 (cancer cell lines; HS729, muscle): > 50 µM
IC50 (cancer cell lines; J82, bladder): > 50 µM
IC50 (cancer cell lines; JAR, placenta): > 50 µM
IC50 (cancer cell lines; MT3, breast): 3.29 µM
IC50 (cancer cell lines; PC3, prostate): > 50 µM
IC50 (cancer cell lines; RD, muscle): > 50 µM
IC50 (cancer cell lines; T24, bladder): 3.46 µM
IC50 (cancer cell lines; Homo sapiens, 22Rv1, 72 h, 22RV1, prostate): > 50 µM
IC50 (cancer cell lines; Homo sapiens, 786-0, 72 h, 786O, kidney): > 50 µM
IC50 (cancer cell lines; Homo sapiens, A204, 72 h, A204, muscle): 0.27 µM
IC50 (cancer cell lines; Homo sapiens, A549, 72 h, A549, lung): 5.54 µM
IC50 (cancer cell lines; Homo sapiens, A673, 72 h, A673, bone): > 50 µM
IC50 (cancer cell lines; Homo sapiens, A2780, 72 h, A2780, ovary): > 50 µM
IC50 (cancer cell lines; Homo sapiens, A-375, 72 h, A375, skin): > 50 µM
IC50 (cancer cell lines; Homo sapiens, A-431, 72 h, A431, skin): > 50 µM
IC50 (cancer cell lines; Homo sapiens, ACHN, kidney): 2.74 µM
IC50 (cancer cell lines; Homo sapiens, ASPC1, 72 h, ASPC1, pancreas): > 50 µM
IC50 (cancer cell lines; Homo sapiens, BT-20, 72 h, BT20, breast): > 50 µM
IC50 (cancer cell lines; Homo sapiens, BXPC-3, 72 h, BXPC3, pancreas): > 50 µM
IC50 (cancer cell lines; Homo sapiens, C-33-A, C33A, endometrial): 6.53 µM
IC50 (cancer cell lines; Homo sapiens, CAKI-1, 72 h, CAKI1, kidney): 1.49 µM
IC50 (cancer cell lines; Homo sapiens, COLO 205, 72 h, COLO205, colon): 3.44 µM
IC50 (cancer cell lines; Homo sapiens, COLO-678, 72 h, COLO678, colon): > 50 µM
IC50 (cancer cell lines; Homo sapiens, Ca-Ski, CASKI, endometrial): > 50 µM
IC50 (cancer cell lines; Homo sapiens, Caco-2, 72 h, CACO2, colon): > 50 µM
IC50 (cancer cell lines; Homo sapiens, Calu-6, 72 h, CALU6, lung): > 50 µM
IC50 (cancer cell lines; Homo sapiens, DLD-1, 72 h, DLD1, colon): > 50 µM
IC50 (cancer cell lines; Homo sapiens, DU-145, 72 h, DU145, prostate): > 50 µM
IC50 (cancer cell lines; Homo sapiens, EFO-21, 72 h, EFO21, ovary): > 50 µM
IC50 (cancer cell lines; Homo sapiens, EJ-28, 72 h, EJ28, bladder): > 50 µM
IC50 (cancer cell lines; Homo sapiens, Granta-519, 72 h, GRANTA-519, hematological): 1.61 µM
IC50 (cancer cell lines; Homo sapiens, HCT-15, 72 h, HCT15, colon): 9.11 µM
IC50 (cancer cell lines; Homo sapiens, HCT-116, 72 h, HCT116, colon): 3.01 µM
IC50 (cancer cell lines; Homo sapiens, HEK293, 72 h, HEK293, kidney): > 50 µM
IC50 (cancer cell lines; Homo sapiens, HL-60, 72 h, HL-60, hematological): > 50 µM
IC50 (cancer cell lines; Homo sapiens, HT-29, 72 h, HT29, colon): > 50 µM
IC50 (cancer cell lines; Homo sapiens, HT-1080, 72 h, HT1080, connective tissue): > 50 µM
IC50 (cancer cell lines; Homo sapiens, HeLa, endometrial): > 50 µM
IC50 (cancer cell lines; Homo sapiens, HepG2, 72 h, HEPG2, liver): > 50 µM
IC50 (cancer cell lines; Homo sapiens, Hs-578T, HS578T, breast): > 50 µM
IC50 (cancer cell lines; Homo sapiens, IGROV-1, 72 h, IGROV1, ovary): > 50 µM
IC50 (cancer cell lines; Homo sapiens, IMR-90, 72 h, IMR90, lung): > 50 µM
IC50 (cancer cell lines; Homo sapiens, JEG-3, 72 h, JEG3, placenta): > 50 µM
IC50 (cancer cell lines; Homo sapiens, JIMT-1, 72 h, JIMT1, breast): > 50 µM
IC50 (cancer cell lines; Homo sapiens, K562, 72 h, K-562, hematological): > 50 µM
IC50 (cancer cell lines; Homo sapiens, Kasumi 1, 72 h, KASUMI-1, hematological): > 50 µM
IC50 (cancer cell lines; Homo sapiens, L-363, 72 h, L-363, hematological): > 50 µM
IC50 (cancer cell lines; Homo sapiens, LoVo, colon): > 50 µM
IC50 (cancer cell lines; Homo sapiens, MCF7, 72 h, MCF7, breast): > 50 µM
IC50 (cancer cell lines; Homo sapiens, MDA-MB-231, 72 h, MDAMB231, breast): 2.85 µM
IC50 (cancer cell lines; Homo sapiens, MDA-MB-435, 72 h, MDAMB435, skin): > 50 µM
IC50 (cancer cell lines; Homo sapiens, MDA-MB-436, 72 h, MDAMB436, breast): > 50 µM
IC50 (cancer cell lines; Homo sapiens, MDA-MB-468, 72 h, MDAMB468, breast): > 50 µM
IC50 (cancer cell lines; Homo sapiens, MG-63, 72 h, MG63, bone): > 50 µM
IC50 (cancer cell lines; Homo sapiens, MHH-ES-1, 72 h, MHHES1, bone): > 50 µM
IC50 (cancer cell lines; Homo sapiens, MIA PaCa-2, 72 h, MIAPACA2, pancreas): > 50 µM
IC50 (cancer cell lines; Homo sapiens, MINO, hematological): 1.3 µM
IC50 (cancer cell lines; Homo sapiens, MV4-11, 72 h, MV4-11, hematological): 4.39 µM
IC50 (cancer cell lines; Homo sapiens, NCI-H23, 72 h, NCI-H23, lung): > 50 µM
IC50 (cancer cell lines; Homo sapiens, NCI-H82, 72 h, NCIH82, lung): > 50 µM
IC50 (cancer cell lines; Homo sapiens, NCI-H292, 72 h, NCIH292, lung): 4.62 µM
IC50 (cancer cell lines; Homo sapiens, NCI-H460, 72 h, NCIH460, ung): 4.01 µM
IC50 (cancer cell lines; Homo sapiens, OVCAR-3, 72 h, OVCAR3, ovary): > 50 µM
IC50 (cancer cell lines; Homo sapiens, OVCAR-4, 72 h, OVCAR4, ovary): > 50 µM
IC50 (cancer cell lines; Homo sapiens, PANC-1, 72 h, PANC1, pancreas): > 50 µM
IC50 (cancer cell lines; Homo sapiens, PLC-PRF-5, 72 h, PLCPRF5, liver): > 50 µM
IC50 (cancer cell lines; Homo sapiens, Panc1005, 72 h, PANC1005, pancreas): > 50 µM
IC50 (cancer cell lines; Homo sapiens, Ramos, hematological): 1.72 µM
IC50 (cancer cell lines; Homo sapiens, SAOS-2, 72 h, SAOS2, bone): > 50 µM
IC50 (cancer cell lines; Homo sapiens, SF-268, 72 h, SF268, brain): > 50 µM
IC50 (cancer cell lines; Homo sapiens, SF-295, 72 h, SF295, brain): > 50 µM
IC50 (cancer cell lines; Homo sapiens, SK-BR-3, 72 h, SKBR3, breast): > 50 µM
IC50 (cancer cell lines; Homo sapiens, SK-HEP1, 72 h, SKHEP1, liver): > 50 µM
IC50 (cancer cell lines; Homo sapiens, SK-LMS-1, 72 h, SKLMS1, uterus): > 50 µM
IC50 (cancer cell lines; Homo sapiens, SK-MEL-5, 72 h, SKMEL5, skin): > 50 µM
IC50 (cancer cell lines; Homo sapiens, SK-MEL-28, 72 h, SKMEL28, skin): > 50 µM
IC50 (cancer cell lines; Homo sapiens, SK-N-AS, SKNAS, brain): > 50 µM
IC50 (cancer cell lines; Homo sapiens, SK-N-SH, SKNSH, brain): > 50 µM
IC50 (cancer cell lines; Homo sapiens, SK-OV-3, 72 h, SKOV3, ovary): > 50 µM
IC50 (cancer cell lines; Homo sapiens, SNB-75, 72 h, SNB75, brain): > 50 µM
IC50 (cancer cell lines; Homo sapiens, SU-DHL10, 72 h, SU-DHL-10, hematological): > 50 µM
IC50 (cancer cell lines; Homo sapiens, SU-DHL-6, 72 h, SU-DHL-6, hematological): 3.8 µM
IC50 (cancer cell lines; Homo sapiens, SW-620, 72 h, SW620, colon): > 50 µM
IC50 (cancer cell lines; Homo sapiens, TE-671, 72 h, TE671, muscle): > 50 µM
IC50 (cancer cell lines; Homo sapiens, THP-1, 72 h, THP-1, hematological): > 50 µM
IC50 (cancer cell lines; Homo sapiens, U2OS, bone): > 50 µM
IC50 (cancer cell lines; Homo sapiens, U-87 MG, U87MG, brain): > 50 µM
IC50 (cancer cell lines; Homo sapiens, UMUC3, 72 h, UMUC3, bladder): > 50 µM
IC50 (cancer cell lines; Homo sapiens, UO-31, 72 h, UO31, kidney): 9.45 µM
IC50 (cancer cell lines; Homo sapiens, WSU-NHL, hematological): 2.82 µM
IC50 (cancer cell lines; NCI-H358M, NCIH358M, lung): 1.49 µM
IC50 (cancer cell lines; PBMC, hematological): 11.8 µM
IC50 (cancer cell lines; RD-ES, RDES, bone): > 50 µM
IC50 (human LINE-1): 0.043 µM

Reference: patent US20230293526A1, “METHOD FOR TREATING CANCER WITH A REVERSE TRANSCRIPTASE INHIBITOR” (PrimeFour Therapeutics, Inc., priority 2020, published 2023)
